Laboratory results reported in the CheMixHub viscosity set.
± gives the uncertainty stated by the source.

Experiment: xn = mol fraction of the nth substance listed

Cc1cccc([N+](=O)[O-])c1 + Cc1ccc(C)cc1
308.15 K, 101.33 kPa
Conditions | viscosity [mPa·s]
x2 = 0.1004 | 1.322 ± 0.008
x2 = 0.2046 | 1.122 ± 0.007
x2 = 0.2963 | 1.004 ± 0.006
x2 = 0.4016 | 0.908 ± 0.006
x2 = 0.4954 | 0.846 ± 0.006
x2 = 0.6076 | 0.768 ± 0.005
x2 = 0.7023 | 0.706 ± 0.005
x2 = 0.8036 | 0.649 ± 0.004
x2 = 0.8975 | 0.6 ± 0.004

CCOC(=O)c1ccccc1 + COCCOCCOC
viscosity [mPa·s], 101.33 kPa
Conditions | x2 = 0.1021 | x2 = 0.2028 | x2 = 0.3004 | x2 = 0.4044 | x2 = 0.5041 | x2 = 0.6032 | x2 = 0.7035 | x2 = 0.8017 | x2 = 0.9022
298.15 K | 1.805 ± 0.021 | 1.694 ± 0.02 | 1.59 ± 0.019 | 1.485 ± 0.018 | 1.389 ± 0.017 | 1.301 ± 0.016 | 1.216 ± 0.015 | 1.134 ± 0.014 | 1.056 ± 0.013
303.15 K | 1.629 ± 0.02 | 1.533 ± 0.018 | 1.442 ± 0.017 | 1.35 ± 0.016 | 1.266 ± 0.016 | 1.189 ± 0.015 | 1.111 ± 0.014 | 1.039 ± 0.013 | 0.967 ± 0.012
308.15 K | 1.476 ± 0.018 | 1.39 ± 0.017 | 1.311 ± 0.016 | 1.231 ± 0.015 | 1.157 ± 0.014 | 1.088 ± 0.014 | 1.02 ± 0.013 | 0.957 ± 0.012 | 0.895 ± 0.012
313.15 K | 1.342 ± 0.016 | 1.268 ± 0.016 | 1.198 ± 0.015 | 1.126 ± 0.014 | 1.062 ± 0.013 | 1 ± 0.013 | 0.94 ± 0.012 | 0.883 ± 0.011 | 0.829 ± 0.011
318.15 K | 1.228 ± 0.015 | 1.161 ± 0.014 | 1.098 ± 0.014 | 1.035 ± 0.013 | 0.976 ± 0.012 | 0.922 ± 0.012 | 0.868 ± 0.011 | 0.818 ± 0.011 | 0.77 ± 0.01

CC1CCCCC1 + CCCCCCO
303.15 K, 101.33 kPa
Conditions | viscosity [mPa·s]
x1 = 0.1015 | 3.051 ± 0.028
x1 = 0.2596 | 2.193 ± 0.02
x1 = 0.4197 | 1.536 ± 0.014
x1 = 0.582 | 1.11 ± 0.01
x1 = 0.7447 | 0.852 ± 0.008
x1 = 0.8989 | 0.693 ± 0.006
x2 = 0.1112 | 0.7521 ± 0.0097
x2 = 0.1986 | 0.8469 ± 0.011
x2 = 0.3135 | 1.009 ± 0.013
x2 = 0.4018 | 1.148 ± 0.014
x2 = 0.4981 | 1.351 ± 0.016
x2 = 0.5978 | 1.595 ± 0.019
x2 = 0.7018 | 1.908 ± 0.022
x2 = 0.8123 | 2.408 ± 0.028
x2 = 0.8923 | 2.874 ± 0.033

CC1CCCCC1 + CCCCCCC
viscosity [mPa·s]
Conditions | 293.15 K | 298.15 K | 303.15 K | 308.15 K | 323.15 K
100 kPa, x1 = 0.125 | – | – | 0.389 ± 0.009 | – | 0.317 ± 0.007
100 kPa, x1 = 0.25 | – | – | 0.411 ± 0.009 | – | 0.335 ± 0.008
100 kPa, x1 = 0.375 | – | – | 0.436 ± 0.01 | – | 0.354 ± 0.008
100 kPa, x1 = 0.5 | – | – | 0.465 ± 0.01 | – | 0.375 ± 0.008
100 kPa, x1 = 0.625 | – | – | 0.498 ± 0.011 | – | 0.4 ± 0.009
100 kPa, x1 = 0.75 | – | – | 0.538 ± 0.012 | – | 0.43 ± 0.01
100 kPa, x1 = 0.875 | – | – | 0.585 ± 0.013 | – | 0.466 ± 0.011
101 kPa, x1 = 0.0405 | 0.4128 ± 0.004 | 0.3963 ± 0.0039 | 0.368 ± 0.0037 | – | –
101 kPa, x1 = 0.1021 | – | 0.411 ± 0.008 | 0.391 ± 0.008 | 0.371 ± 0.007 | –
101 kPa, x1 = 0.1996 | 0.4451 ± 0.0044 | 0.4235 ± 0.0043 | 0.4003 ± 0.0041 | – | –
101 kPa, x1 = 0.2033 | – | 0.432 ± 0.008 | 0.41 ± 0.008 | 0.389 ± 0.008 | –
101 kPa, x1 = 0.281 | 0.4637 ± 0.0047 | 0.4402 ± 0.0045 | 0.4162 ± 0.0043 | – | –
101 kPa, x1 = 0.3044 | – | 0.451 ± 0.009 | 0.427 ± 0.008 | 0.403 ± 0.008 | –
101 kPa, x1 = 0.3593 | 0.4826 ± 0.0049 | 0.4568 ± 0.0047 | 0.4317 ± 0.0045 | – | –
101 kPa, x1 = 0.4036 | – | 0.473 ± 0.009 | 0.449 ± 0.008 | 0.422 ± 0.008 | –
101 kPa, x1 = 0.4393 | 0.5042 ± 0.0052 | 0.474 ± 0.005 | 0.4476 ± 0.0048 | – | –
101 kPa, x1 = 0.5029 | – | 0.497 ± 0.009 | 0.47 ± 0.009 | 0.443 ± 0.008 | –
101 kPa, x1 = 0.6003 | 0.5514 ± 0.0059 | 0.5153 ± 0.0056 | 0.4887 ± 0.0054 | – | –
101 kPa, x1 = 0.6033 | – | 0.526 ± 0.01 | 0.496 ± 0.009 | 0.467 ± 0.009 | –
101 kPa, x1 = 0.6793 | 0.5802 ± 0.0064 | 0.5399 ± 0.006 | 0.512 ± 0.0057 | – | –
101 kPa, x1 = 0.7038 | – | 0.556 ± 0.01 | 0.524 ± 0.01 | 0.492 ± 0.009 | –
101 kPa, x1 = 0.76 | 0.6141 ± 0.0069 | 0.571 ± 0.0065 | 0.5395 ± 0.0062 | – | –
101 kPa, x1 = 0.8022 | – | 0.591 ± 0.011 | 0.557 ± 0.01 | 0.522 ± 0.01 | –
101 kPa, x1 = 0.84 | 0.6483 ± 0.0074 | 0.6042 ± 0.007 | 0.5687 ± 0.0066 | – | –
101 kPa, x1 = 0.9006 | – | 0.625 ± 0.011 | 0.589 ± 0.011 | 0.553 ± 0.01 | –
101 kPa, x1 = 0.9074 | 0.6821 ± 0.0079 | 0.6347 ± 0.0074 | 0.5964 ± 0.007 | – | –

CC(=O)[O-].CCCC[NH2+]CCO + CCCCn1cc[n+](C)c1.COP(=O)([O-])OC
viscosity [mPa·s], 101 kPa
Conditions | x1 = 0.1014 | x1 = 0.2979 | x1 = 0.4067 | x1 = 0.4989 | x1 = 0.8011 | x1 = 0.8913
293.15 K | 730.5 ± 28 | – | – | 502.5 ± 17 | 741.5 ± 30 | –
298.15 K | – | 392.5 ± 12 | 359.5 ± 11 | – | – | 632.5 ± 25

CCCNCCC + CCO
viscosity [mPa·s], 101.33 kPa
Conditions | x1 = 0.0942 | x1 = 0.1946 | x1 = 0.3116 | x1 = 0.4115 | x1 = 0.5186 | x1 = 0.6176 | x1 = 0.7061 | x1 = 0.8005 | x1 = 0.9058
303.15 K | 1.05 ± 0.013 | 1.048 ± 0.013 | 0.9952 ± 0.013 | 0.9229 ± 0.012 | 0.8291 ± 0.011 | 0.7485 ± 0.0099 | 0.6803 ± 0.0091 | 0.6208 ± 0.0085 | 0.56 ± 0.0078
313.15 K | 0.8212 ± 0.011 | 0.7926 ± 0.01 | 0.7448 ± 0.0098 | 0.6985 ± 0.0093 | 0.6485 ± 0.0088 | 0.5986 ± 0.0082 | 0.5562 ± 0.0078 | 0.51 ± 0.0073 | 0.4624 ± 0.0067

CCOC(=O)c1ccccc1 + C1CCCCC1
viscosity [mPa·s], 101 kPa
Conditions | x1 = 0.0779 | x1 = 0.1586 | x1 = 0.2454 | x1 = 0.3327 | x1 = 0.4305 | x1 = 0.5312 | x1 = 0.6374 | x1 = 0.751 | x1 = 0.868
303.15 K | 0.82 ± 0.017 | 0.832 ± 0.017 | 0.88 ± 0.018 | 0.937 ± 0.02 | 1.025 ± 0.021 | 1.123 ± 0.023 | 1.248 ± 0.026 | 1.387 ± 0.029 | 1.552 ± 0.032
308.15 K | 0.78 ± 0.016 | 0.801 ± 0.017 | 0.84 ± 0.018 | 0.89 ± 0.019 | 0.96 ± 0.02 | 1.047 ± 0.022 | 1.157 ± 0.024 | 1.295 ± 0.027 | 1.439 ± 0.03
313.15 K | 0.708 ± 0.015 | 0.727 ± 0.015 | 0.772 ± 0.016 | 0.819 ± 0.017 | 0.885 ± 0.019 | 0.967 ± 0.02 | 1.069 ± 0.022 | 1.198 ± 0.025 | 1.33 ± 0.028

CC1CCCCC1 + CCCCO
303.15 K, 101.33 kPa
Conditions | viscosity [mPa·s]
x1 = 0.1 | 1.825 ± 0.014
x1 = 0.2604 | 1.383 ± 0.011
x1 = 0.42 | 1.072 ± 0.009
x1 = 0.5788 | 0.854 ± 0.007
x1 = 0.7414 | 0.719 ± 0.006
x1 = 0.9013 | 0.643 ± 0.006
x2 = 0.0995 | 0.6691 ± 0.0088
x2 = 0.2019 | 0.7305 ± 0.0095
x2 = 0.3088 | 0.8105 ± 0.01
x2 = 0.3988 | 0.89 ± 0.011
x2 = 0.5011 | 0.9898 ± 0.012
x2 = 0.5989 | 1.122 ± 0.014
x2 = 0.6911 | 1.272 ± 0.015
x2 = 0.7839 | 1.45 ± 0.017
x2 = 0.9179 | 1.858 ± 0.022

CCOC(=O)c1ccccc1 + CCOC(C)=O
298.15 K, 101 kPa
Conditions | viscosity [mPa·s]
x2 = 0.1216 | 1.704 ± 0.022
x2 = 0.2088 | 1.514 ± 0.02
x2 = 0.3131 | 1.292 ± 0.017
x2 = 0.3973 | 1.157 ± 0.015
x2 = 0.5044 | 0.9851 ± 0.013
x2 = 0.5998 | 0.8478 ± 0.011
x2 = 0.6989 | 0.7247 ± 0.0096
x2 = 0.7997 | 0.6178 ± 0.0083
x2 = 0.8992 | 0.5188 ± 0.007
